Measurements as given in article PMC11900932 (International Journal of Molecular Sciences, 2025).
Counter-ions that a name gives are not always drawn. Like-named read-outs stand apart in the source and are kept apart here.

Columns and labels:
[1] = biological target: T1, SARS-CoV-2 3CL^pro (Severe acute respiratory syndrome coronavirus 2, UniProt P0DTD1); settings: cited from earlier work
[2] = biological target: T1, SARS-CoV-2 3CL^pro; experiment: biochemical
[3] = tested on: SARS-CoV-2-S pseudovirus; experiment: microbe, parasite or virus in culture; type: cell-based; settings: for IC50: Pseudovirus, read-out: IC50, pseudovirus activity inhibition
[4] = biological target: T2, CTSB (Homo sapiens, UniProt P07858); experiment: Host protease selectivity test, Cathepsin B; type: biochemical; settings: 5 and 50 μM
T2 construct: purchased SinoBiological, Beijing, China
Method: Target selectivity tests toward host proteases were conducted based on our previous method. Cathepsin B (CTSB) (SinoBiological, Beijing, China) at a final concentration of 100 nM was prepared in buffer with 20 mM sodium acetate, 1 mM EDTA, and 2 mM DTT (pH 5.5) and incubated for 30 min at 30 °C. Next, the working solution of CTSB was diluted into 500 pM with the reaction buffer (100 mM MES pH 6.0, 1 mM EDTA, 2 mM DTT, and 0.01% Tween-20) and kept for 30 min. Then, the FRET substrate Z-Phe-Arg-AMC (NJPeptide, Nanjing, China) at 5 μM was added to activate the enzymatic reaction. The fluorescence signals were measured using a Cytation 5 plate reader (BioTek, Winooski, VT, USA) at 360 nm (excitation)/460 nm (emission) for 20 min.

[5] = Cell viability assay (CCK-8) on Vero-E6 cells; settings: African green monkey
[6] = biological target: T3, TMPRSS2 (Homo sapiens, UniProt O15393); experiment: Host protease selectivity test, TMPRSS2; type: biochemical
T3 construct: purchased MedChemExpress, Shanghai, China
T3 sequence (O15393 whole entry): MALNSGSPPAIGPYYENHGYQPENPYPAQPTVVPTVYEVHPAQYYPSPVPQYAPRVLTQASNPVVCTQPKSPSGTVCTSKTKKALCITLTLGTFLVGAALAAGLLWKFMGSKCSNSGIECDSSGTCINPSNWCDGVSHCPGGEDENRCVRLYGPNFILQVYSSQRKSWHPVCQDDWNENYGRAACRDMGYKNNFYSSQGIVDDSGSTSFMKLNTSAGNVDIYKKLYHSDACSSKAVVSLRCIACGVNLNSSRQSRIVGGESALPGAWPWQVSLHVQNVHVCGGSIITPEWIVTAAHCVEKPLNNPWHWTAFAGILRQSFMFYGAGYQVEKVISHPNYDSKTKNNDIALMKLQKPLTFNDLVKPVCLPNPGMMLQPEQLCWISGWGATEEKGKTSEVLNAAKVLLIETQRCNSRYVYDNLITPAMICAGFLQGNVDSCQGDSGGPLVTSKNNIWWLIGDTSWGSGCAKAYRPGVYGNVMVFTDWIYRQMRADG
Method: TMPRSS2 protease at the concentration of 5 nM (MedChemExpress, Shanghai, China) was incubated with compounds in the reaction buffer (50 mM Tris-HCl, 1 mM CaCl2, 0.1% Tween 20, pH 8.0) for 1 h at 37 °C. Then, 45 μM substrate Boc-GIn-Ala-Arg-AMC (NJPeptide, Nanjing, China) was added to initiate the reaction. Fluorescence intensity was detected using a Cytation 5 plate reader at 380 nm (excitation)/460 nm (emission) for 1.5 h.

[7] = biological target: SARS-CoV 3CL^pro (Severe acute respiratory syndrome coronavirus, UniProt P0C6X7); experiment: biochemical
[8] = biological target: T4, CTRC (Homo sapiens, UniProt Q99895); experiment: Host protease selectivity test, Chymotrypsin; type: biochemical; settings: 5 and 50 μM
T4 construct: purchased Novoprotein, Suzhou, China
T4 sequence (Q99895 30-268): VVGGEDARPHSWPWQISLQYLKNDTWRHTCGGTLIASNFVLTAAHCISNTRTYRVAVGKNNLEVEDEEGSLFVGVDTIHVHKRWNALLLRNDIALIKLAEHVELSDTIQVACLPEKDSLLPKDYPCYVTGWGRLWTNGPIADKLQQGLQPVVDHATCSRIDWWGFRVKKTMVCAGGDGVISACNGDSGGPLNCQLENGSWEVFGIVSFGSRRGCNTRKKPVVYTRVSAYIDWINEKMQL
Method: Chymotrypsin (CTRC) (Novoprotein, Suzhou, China) at a final concentration of 5 μg/mL was incubated in a buffer solution containing 50 mM Tris, 10 mM CaCl2, and 150 mM NaCl at pH 7.5 for a period of 30 min. Subsequently, trypsin was added to the mixture at the same concentration (5 μg/mL) and incubated for an additional 60 min at 37 °C. Following this, the reaction was initiated by adding 100 µM of the Succinyl-Ala-Ala-Pro-Phe-p-nitroanilide substrate (NJPeptide, Nanjing, China), and the mixture was incubated for another 60 min at 37 °C. Finally, the activity of CTRC was quantified by measuring the absorbance at 405 nm using a Cytation 5 plate reader (BioTek, Winooski, VT, USA).

[9] = biological target: T5, CTSL (Homo sapiens, UniProt P07711); experiment: Host protease selectivity test, Cathepsin L; type: biochemical; settings: 5 and 50 μM
T5 construct: purchased SinoBiological, Beijing, China
T5 sequence (P07711 114-333): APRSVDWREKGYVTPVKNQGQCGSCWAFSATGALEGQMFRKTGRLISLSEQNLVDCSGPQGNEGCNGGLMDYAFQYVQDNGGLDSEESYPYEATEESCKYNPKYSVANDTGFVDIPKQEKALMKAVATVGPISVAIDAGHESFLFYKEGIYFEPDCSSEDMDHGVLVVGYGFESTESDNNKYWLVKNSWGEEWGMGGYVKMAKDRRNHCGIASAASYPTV
Method: Cathepsin L (CTSL) (SinoBiological, Beijing, China) at a final concentration of 100 nM in buffer (20 mM sodium acetate, 1 mM EDTA, and 5 mM DTT, pH 5.5) was activated by incubation at 30 °C. Then, the working solution of CTSL was diluted into 300 pM with the reaction buffer and incubated for 30 min. The addition of 5 μM FRET substrate Z-Phe-Arg-AMC (NJPeptide, Nanjing, China) initiated the reaction. The fluorescence signals at 360 nm (excitation)/460 nm (emission) were measured for 20 min with the Cytation 5 plate reader (BioTek, Winooski, VT, USA).

[10] = biological target: MERS-CoV 3CL^pro (Middle East respiratory syndrome-related coronavirus, UniProt K9N7C7); experiment: biochemical
MERS-CoV 3CL^pro, sequence (K9N7C7 3248-3553 limits assumed): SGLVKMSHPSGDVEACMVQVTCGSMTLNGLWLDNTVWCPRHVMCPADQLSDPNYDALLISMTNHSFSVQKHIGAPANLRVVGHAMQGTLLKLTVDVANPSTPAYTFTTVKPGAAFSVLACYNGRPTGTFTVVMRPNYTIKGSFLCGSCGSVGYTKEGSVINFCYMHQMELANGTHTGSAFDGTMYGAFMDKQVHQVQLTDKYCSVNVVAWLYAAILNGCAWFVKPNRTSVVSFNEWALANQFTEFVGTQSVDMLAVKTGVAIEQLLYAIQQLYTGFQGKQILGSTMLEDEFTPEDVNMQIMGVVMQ

[11] = in vitro; settings: human
[12] = biological target: T1, SARS-CoV-2 3CL^pro; settings: cited from earlier work; remark: listed apart in the source
[13] = tested on: SARS-CoV-2-S pseudovirus Gamma; experiment: microbe, parasite or virus in culture; type: cell-based
[14] = biological target: SARS-CoV-2 S-RBD/ACE2 interaction (Severe acute respiratory syndrome coronavirus 2, UniProt P0DTC2); type: cell-based
[15] = biological target: T1, SARS-CoV-2 3CL^pro
[16] = biological target: T1, SARS-CoV-2 3CL^pro; type: biochemical
[17] = tested on: SARS-CoV-2-S pseudovirus Omicron; experiment: microbe, parasite or virus in culture; type: cell-based
[18] = set-up: method as in doi:10.1177/009286150103500134; settings: cited from earlier work
[19] = tested on: SARS-CoV-2-S pseudovirus Delta; experiment: microbe, parasite or virus in culture; type: cell-based
[20] = biological target: SARS-CoV-2 S-RBD (Severe acute respiratory syndrome coronavirus 2, UniProt P0DTC2); experiment: biochemical; type: binding
[21] = biological target: human ACE2 (Homo sapiens, UniProt Q9BYF1); experiment: SPR binding to immobilized ACE2
human ACE2, sequence (Q9BYF1 18-805): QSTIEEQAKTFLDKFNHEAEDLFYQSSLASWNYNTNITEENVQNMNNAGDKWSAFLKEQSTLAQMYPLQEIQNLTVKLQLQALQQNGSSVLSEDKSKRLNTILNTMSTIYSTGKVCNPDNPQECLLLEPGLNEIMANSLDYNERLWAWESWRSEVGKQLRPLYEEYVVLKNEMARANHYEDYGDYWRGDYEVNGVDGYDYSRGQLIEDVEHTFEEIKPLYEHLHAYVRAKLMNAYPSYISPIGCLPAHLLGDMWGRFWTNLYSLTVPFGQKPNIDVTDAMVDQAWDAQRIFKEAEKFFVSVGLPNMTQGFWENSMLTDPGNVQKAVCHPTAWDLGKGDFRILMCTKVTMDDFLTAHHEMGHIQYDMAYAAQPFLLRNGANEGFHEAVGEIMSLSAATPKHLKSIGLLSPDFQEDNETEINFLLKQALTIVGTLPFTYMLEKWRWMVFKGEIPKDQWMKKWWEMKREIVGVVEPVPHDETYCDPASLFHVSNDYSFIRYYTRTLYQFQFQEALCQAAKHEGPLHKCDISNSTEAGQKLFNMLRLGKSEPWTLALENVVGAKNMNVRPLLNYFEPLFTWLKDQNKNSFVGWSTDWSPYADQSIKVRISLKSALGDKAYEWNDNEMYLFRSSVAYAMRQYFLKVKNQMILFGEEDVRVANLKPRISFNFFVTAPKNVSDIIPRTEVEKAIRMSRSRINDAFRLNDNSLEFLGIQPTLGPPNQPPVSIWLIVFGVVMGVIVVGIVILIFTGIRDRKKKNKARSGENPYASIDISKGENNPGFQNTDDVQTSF
Method: ACE2 and S-RBD were separately immobilized onto a CM5 chip via amine coupling in sodium acetate buffer (pH 4.0 for ACE2 and pH 5.5 for S-RBD) at a flow rate of 10 μL/min. After the chip surface was activated with NHS and EDC, ACE2 and S-RBD were injected at concentrations of 20 μg/mL and 30 μg/mL, respectively, and the surface was blocked using ethanolamine. […] All measurements were performed in PBS buffer (0.05% Tween-20, 5% DMSO, pH 7.4) at 25 °C, with corrections applied to address refractive index shifts and data drift. The binding affinities were quantified by fitting the interaction data to a Langmuir 1:1 binding model using Biacore Evaluation software.

For `O=c1cc(-c2ccc(O)cc2)oc2cc(O)cc(O)c12` [Apigenin], the IC50 [1] is given as 84.9 µM.
In the case of `C[C@@H]1O[C@@H](OC[C@H]2O[C@@H](Oc3c(-c4cc(O)c(O)c(O)c4)oc4cc(O)cc(O)c4c3=O)[C@H](O)[C@@H](O)[C@@H]2O)[C@H](O)[C@H](O)[C@H]1O` [Myricetin-3-O-rutinoside], the IC50 [2] is reported as 0.85 µM.
For `NC(CO)C(=O)NNCc1ccc(O)c(O)c1O` (centres unmarked) [Benserazide hydrochloride], the “inhibition of pseudovirus entry into host cells” value [3] was “lacked the capacity to inhibit pseudovirus entry into host cells”, the IC50 [3] was greater than 200 µM and the “inhibition of CTSB” value [4] was “neither compound significantly inhibited”. The CC50 at 24 h [5] was greater than 100 µM, the “inhibition of TMPRSS2” value [6] was “neither compound significantly inhibited” and the IC50 [7] was 3.04 ± 0.4 µM. For the same compound, the “inhibitory activity against CTRC” value [8] was “did not”, the “inhibition of CTSL” value [9] was “neither compound significantly inhibited” and the IC50 [10] was 8.81 ± 0.34 µM. It also gave a CC50 [11] greater than 200 µM.
`Oc1cc(O)c2c(c1)O[C@H](c1ccc(O)c(O)c1)[C@H](O)C2` [Epicatechin] showed an IC50 [2] of 3.3 µM.
In the case of `C/C=C1/[C@H](O[C@@H]2O[C@H](CO)[C@@H](O)[C@H](O)[C@H]2O)OC=C(C(=O)OC)[C@H]1CC(=O)OCCc1ccc(O)c(O)c1` [Oleuropein], the IC50 [12] is given as 3500 nM.
In the case of `O=C(c1cc(O)c(O)c(O)c1)c1ccc(O)c(O)c1O` [Exifone], the IC50 [3] is reported as 76.5 ± 32.6 µM, the “inhibition of CTSB” value [4] is reported as “neither compound significantly inhibited” and the inhibition at 5 µM ([2]; read-out: inhibition of SARS-CoV-2 3CLpro activity) is reported as greater than 50%. For the same compound, the CC50 at 24 h ([5]; Vero-E6 cells) was greater than 100 µM, the “inhibition of TMPRSS2” value [6] was “neither compound significantly inhibited” and the IC50 [13] was 159 ± 4.95 µM. For the same compound, the IC50 [7] was 3.36 ± 0.08 µM, the “S-RBD binding signal on Vero-E6 cells” value [14] was “marked reduction in the S-RBD binding signal” and the TDI effect [15] was “did not exhibit a significant TDI effect”. The “inhibitory activity against CTRC” value [8] was “significant inhibitory activity”, the type of inhibition [16] was “non-competitive inhibition with an allosteric mechanism” and the IC50 [17] was 55.1 ± 6.15 µM. For the same compound, the “inhibition of CTSL” value [9] was “neither compound significantly inhibited”, the “reason for withdrawal from the market” value [18] was “hepatotoxicity” and the IC50 [19] was 150 ± 5.06 µM. It also gave a Kd [20] of 818 nM, an IC50 [10] of 13.9 ± 0.38 µM and a CC50 [11] greater than 200 µM. For the same compound, the Kd [21] was 1930 nM and the kd ([21]; SPR, immobilized ACE2) was 0.00045 s⁻¹.
With `COc1cc(-c2oc3cc(O)cc(O)c3c(=O)c2O[C@@H]2O[C@H](CO[C@@H]3O[C@@H](C)[C@H](O)[C@@H](O)[C@H]3O)[C@@H](O)[C@H](O)[C@H]2O)cc(O)c1O` [Laricitrin 3-rutinoside] the IC50 [2] was 3.82 µM.
For `COC(=O)[C@@H](Cc1ccc(O)c(O)c1)OC(=O)/C=C/c1ccc(O)c(O)c1` [Methyl rosmarinate], the IC50 [12] is listed as 2500 nM.
In the case of `O=C(/C=C/c1ccc(O)cc1)c1ccc(O)cc1O` [Isoliquiritigenin], the IC50 [2] is reported as 73.9 µM.
In the case of `O=c1cc(-c2ccc(O)c(O)c2)oc2cc(O)cc(O)c12` [luteolin], the IC50 [1] is given as 74.9 µM.
